# Data from patent US10576151B2, “Ciclopirox for use in modulation of glucose homeostasis” (UNIVERSITY OF SOUTH CAROLINA, priority 2015, dated 2020).
# “Also recorded” adds a separate entry of the source.
# Assays:
# ROS = assay: Cellular ROS production in islets (DCFDA assay); type: cell-based, mice
# Protocol: Measurement of Cellular ROS Production. Islets were incubated with KR buffer containing 0.01% (w/v) bovine serum albumin (BSA), 16 mM HEPES, and 2.8 mM glucose for 60 min at 37° C. ROS measurements were measured by using the DCFDA Cellular ROS Detection Assay Kit (Abcam/Mitosciences) in a 96-well dark microplate in accordance with the manufacturer's guidelines. Briefly, 30 islets were seeded into each well. On the day of the experiment, the islets were washed with 1×phosphate buffered saline and stained with 20 μM DCFH-DA in the dark for 30 min at 37° C. After incubation, DCFH-DA was removed, and the islets were washed with 1×buffer solution. Islets were seeded in a 96-well plate followed by high glucose alone or in combination with CPX glucose treatment and iron citrate alone or in combination with CPX treatment. Samples were analyzed using a Varioskan Flash micro-plate reader (Thermo-Scientific) with excitation wavelength at 485 nm and an emission wavelength at 535 nm. Tert-Butyl hydroperoxide (TBHP) was used as positive control.
# pancreatic islets [1] = assay: Pancreatic islet numbers by histology (H&E); type: in vivo; conditions: diabetic mice treated with CPX (FIG. 8)
# Source text: In Vivo Analysis of Anti-Diabetic Effect of CPX. Mice were randomly grouped. A group of C57BI/6 mice 4-5 weeks old, were fed with either a solution of 10% sucrose and a diet containing 40% kcal as a high-fat diet (HFD; Open Source Diets (New Brunswick, N.J., USA) D12451, 40% calories/fat with free access to (10%) sweetened water (sucrose) or a control chow diet containing 10% of kcal as fat (low-fat diet) and drinking water with no added sucrose (control). Mice with a glucose concentration exceeding 180 mg/dL were considered diabetic, after 2 consecutive glucose measurements. The blood glucose levels were measured using an Accu-Check blood glucose monitor (Roche, Indianapolis, Ind., USA) using blood sample collected from the tail vein. Diabetic mice were treated with either treated daily for 20 days by oral gavages with CPX (25 mg/kg) prepared in a solution (4% ethanol, 5.2% Tween 80, and 5.2% PEG 400) or vehicle control. Pancreata were preserved in 10% buffered formalin for later histological examination. Immunostaining. Pancreatic tissue samples were fixed at 10% buffered formalin, processed a defined paraffin-embedding procedure before embedding in paraffin, sectioning into 4-μm tissue sections, and stained with hematoxylin and eosin by standard methods.
# pancreatic islets [2] = assay: Islet survival under increasing glucose (glucotoxicity), CellTiter 96 AQueous One; type: cell-based, mice; conditions: for protection from glucotoxicity (islet survival): increasing glucose
# Protocol: Islet Isolation and Viability Assessment. Pancreatic islets were manually isolated from female C57BI/6 mice by the collagenase digestion method (Sigma-Aldrich; Li et al. 2009) and placed in a 96-well plate. The islets were incubated at 37° C. with 95% air and 5% CO2. Islets were manually picked after dithizone (DTZ; Sigma Chemical Co) staining. Before experiments were performed, the islet cells were incubated with extracellular Krebs-Ringer (KR) solution (Sigma-Aldrich) and with increasing amounts of glucose for 24 h and 48 h. Islet cell viability was assessed using CellTiter 96 AQueous One Solution Cell Proliferation Assay from Promega (Madison, USA). Islets from wt, p21-deficient, p53-deficient and CHOP-deficient mice were exposed to CPX at 20 μM for 24 h under increasing glucose amounts in the culture media, then they were let to recover for 48 h in normal glucose-containing media and their survival was assessed (FIG. 9). The 48 h recovery in normal media was deemed necessary because CPX, by inducing p21 expression would inflict cell cycle arrest in islets masking the effects of glucotoxicity. […] The p21-stimulatory activity of CPX in the islets is also p53-independent. […] Consistently with its pro-apoptotic role during ER stress CHOP ablation conferred resistance of islets to glucotoxicity (FIG. 10 at B).
# [3] = system: wt mice receiving normal diet; assay: Fasting glucose in non-diabetic wild type mice on normal diet; type: in vivo, C57BI/6 mice; conditions: non-diabetic wt mice on normal diet with CPX (FIG. 5B, FIG. 7A)
# Source text: In Vivo Analysis of Anti-Diabetic Effect of CPX. Mice were randomly grouped. A group of C57BI/6 mice 4-5 weeks old, were fed with either a solution of 10% sucrose and a diet containing 40% kcal as a high-fat diet (HFD; Open Source Diets (New Brunswick, N.J., USA) D12451, 40% calories/fat with free access to (10%) sweetened water (sucrose) or a control chow diet containing 10% of kcal as fat (low-fat diet) and drinking water with no added sucrose (control). Mice with a glucose concentration exceeding 180 mg/dL were considered diabetic, after 2 consecutive glucose measurements. The blood glucose levels were measured using an Accu-Check blood glucose monitor (Roche, Indianapolis, Ind., USA) using blood sample collected from the tail vein. […] Glucose levels of mice were measured by an Accu-Chek Active meter (ROCHE) with blood sample obtained from the tail. […] For insulin resistance test, mice were injected intraperitoneally at a dose of 0.75 units/kg with human insulin (0.75 U/kg body weight; Sigma) at different time points as indicated, as for glucose tolerance after insulin injection and blood glucose was measured as described. In order to test if the antidiabetic activity of CPX was elicited only in diabetic mice or in non-diabetic mice as well, plasma glucose levels were assessed in wt mice that were receiving normal diet in combination with CPX.
structure (smiles),measurement,setting,value
"Cc1cc(C2CCCCC2)n(O)c(=O)c1 [CPX, 6-cyclohexyl-1-hydroxy-4-methylpyridin-2(1H)-one]",ROS production,ROS; ROS triggered by high glucose (FIG. 12B),potent inhibitor of ROS
same,ROS production,ROS; ROS triggered by iron citrate (FIG. 12B),potent inhibitor of ROS
same,islet numbers,pancreatic islets [1],increased significantly
same,protection from glucotoxicity (islet survival),"pancreatic islets [2]; p21-deficient islets, CPX 20 μM 24 h then 48 h recovery (FIG. 10D)",not p21-deficient animals
same,protection from glucotoxicity (islet survival),"pancreatic islets [2]; p53-deficient islets, CPX 20 μM 24 h then 48 h recovery (FIG. 10C)",A similar trend was also found for p53
same,protection from glucotoxicity (islet survival),"pancreatic islets [2]; wt islets, CPX 20 μM 24 h then 48 h recovery (FIG. 10A)",protected wt
same,islet growth,"pancreatic islets [2]; wt islets, normal glucose, CPX 20 μM 24 h then 48 h recovery (FIG. 10A)",significantly inhibited islet growth
same,glucose levels (fasting),[3],no reduction of glucose levels was recorded; also recorded: not affected
